Test results as given in patent US8153784B2, “Imaging of enzyme activity” (The General Hospital Corporation, priority 2004, dated 2012).
Several values for one entry are separate records, joined by “and”; a condition that tells them apart may be missing. Equal entries are not always repeated. Entries after “also recorded” stand apart in the source; their conditions may differ.

Tests used:
[1] = target: T1, human MPO embedded in Matrigel (Homo sapiens, UniProt P05164); test: MPO/Matrigel implant mouse model, T1-weighted MR imaging; format: in vivo; conditions: for enhancement of MPO implant compared with control implant: right MPO/Matrigel vs left control; for enhancement of MPO implant compared with control implant / relative CNR before wash-out/decrease of the control side: 1.5 T; for maximum relative CNR ratio (CNR(right)/CNR(left)): MPO/Matrigel right vs control left
T1 construct: purchased BioDesign, Inc
T1 sequence (P05164 49-745): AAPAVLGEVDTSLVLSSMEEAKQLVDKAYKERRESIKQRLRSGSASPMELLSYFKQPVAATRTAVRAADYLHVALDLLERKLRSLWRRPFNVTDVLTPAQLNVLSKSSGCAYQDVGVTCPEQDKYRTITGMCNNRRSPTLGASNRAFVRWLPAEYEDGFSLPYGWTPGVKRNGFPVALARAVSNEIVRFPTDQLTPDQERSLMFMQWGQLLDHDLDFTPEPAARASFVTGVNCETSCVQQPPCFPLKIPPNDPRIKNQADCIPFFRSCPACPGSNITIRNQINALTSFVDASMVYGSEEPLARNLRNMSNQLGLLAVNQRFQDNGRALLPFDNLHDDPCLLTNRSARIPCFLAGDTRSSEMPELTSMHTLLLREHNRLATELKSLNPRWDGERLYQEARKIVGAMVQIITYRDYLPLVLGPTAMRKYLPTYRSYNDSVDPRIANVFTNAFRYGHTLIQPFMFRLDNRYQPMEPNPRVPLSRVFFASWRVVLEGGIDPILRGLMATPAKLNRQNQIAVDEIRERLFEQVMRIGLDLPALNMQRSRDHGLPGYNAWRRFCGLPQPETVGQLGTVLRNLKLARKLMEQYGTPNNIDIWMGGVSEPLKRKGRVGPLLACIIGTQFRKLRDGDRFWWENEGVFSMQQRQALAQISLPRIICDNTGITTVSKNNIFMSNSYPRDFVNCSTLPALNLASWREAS
Experimental: To evaluate the monomeric substrates in vivo, we devised a mouse model that harbored 400 μL of Matrigel basement membrane matrix gel mixed 1:1 by volume with a solution containing 15 U of human MPO and glucose oxidase (as a source of hydrogen peroxide) that was injected into the right flank of the mouse. The left flank was injected with the enzyme-free Matrigel mixture. We subsequently performed T1-weighted MR imaging after the intravenous injection of Gd-DTPA-diSer substrate at the dose of […].
The MR imaging experiments were performed on a 1.5 T GE Excite scanner and a 4.7 T Bruker Pharmascan scanner. For all MR imaging experiments, precontrast T2-(TR=2000, TE=100, ETL=8, NEX=4, fast spin echo sequence) and T1-weighted images (TR=500, TE=11, NEX=4, spin echo sequence) with fat saturation were initially performed to locate the gels or area of inflammation. The substrates (0.3 mmol/kg) were subsequently injected via the tail vein of the mouse. The mouse was immediately imaged after the injection of the contrast agent using multiple T1-weighted sequences with fat saturation for at least 3 hours.
Ten-week old C57BL6 male mice were obtained from Jackson Laboratories. A total of 22 mice were used for the study. • 1. MPO/Matrigel imaging experiments: Matrigel™ (Beckton-Dickinson), a […] basement membrane matrix gel was used to immobilize human MPO and glucose oxidase (to supply H2O2 required for detecting MPO oxidative activity, Calbiochem). This was chosen to reflect deposits of human MPO in inflamed tissue in a mouse model. 400 μL of a mixture of Matrigel™ and MEM (Cambrex) was injected slowly into the thighs of each mouse one hour prior to imaging. The right thigh mixture also contained 15 U of MPO and 4 U of glucose oxidase (Calbiochem), while the left thigh mixture contained no enzyme and thus serves as an internal control. A total of 15 mice were used (3 mice each for 5-HT-DOTA(Gd), bis-5-HT-DTPA(Gd), bis-5-HT-DTPA-^111In, bis-tyramide-DTPA(Gd), and DTPA(Gd)). • 2. LPS/Matrigel experiments (n=3): This model was developed to induce endogeneous mouse MPO secretion and activation. 200 μL total volume Matrigel containing 10% heparin was injected slowly into the thighs of the mice 4 days prior to imaging. The right-sided mixture also contained E. coli lipopolysaccharide (LPS) at 10 μg/mL. One mouse was sacrificed for immunohistochemistry. • 3. Myositis experiments (n=4): LPS at 100 μg/mL in PBS was injected into each mouse intramuscularly in the right flank to produce myositis. The mice are imaged 24 hours after injection.
For normalized signal intensity measured on T1-weighted images, mean±standard deviation (SD) values were calculated in regions of interest (ROI). Contrast-to-noise (CNR) ratios were computed for each ROI according to the formula

[2] = target: T2, human myeloperoxidase (MPO) (Homo sapiens, UniProt P05164); conditions: in vitro settings; reference (9); cited from earlier work
T2 construct: purchased BioDesign Inc

[3] = Relaxivity of monomeric Gd complexes without enzyme; format: physicochemical; conditions: for r1p (0.47T, 40°) / r1p (1.5T, 25°): no HRP
Experimental: Stock solutions of compounds 1Gd and 2Gd were prepared by dissolving the corresponding complexes in DPBS buffer solution (pH 7.4) and were kept at −4° in the dark. Every stock solution was titrated by means of ICP-MS (Elemental Research Inc.).
Relaxation times at 0.47 T was obtained on a Bruker NMS-120 Minispec spectrometer using an inversion recovery sequence, with a TR=5T1, and 15 TI points evenly spaced up to 5T1.
Relaxation times at 1.5 T was measured on a 1.5 T GE Excite MR scanner utilizing an inversion recovery sequences with TR=2000 ms, TI=50, 75, 100, 150, 200, 250, 300, 350, 400, 500, 625, 750, 1000 ms. A fixed-size region of interest was drawn to obtain the signal intensity of the samples.
The data at 0.47 T and 1.5 T were fitted to the equation Ix=I0*(1−2e^[…]) to obtain T1, where I is the signal obtained at a certain time point TI, with I0 (total signal or magnetization) and T1 being fitted values.
The relaxivities of various polymerized products were measured using a minimum of four different gadolinium complex concentrations ranging from 2.5 mM to 0.01 mM. Horseradish peroxidase (HRP) was used in the proof-of-the-principle experiments. As used herein, the descriptors 1Gd^3+ and 2Gd^3+ refer to Gd^3+-chelated compounds 1 and 2, respectively. The synthesis of 1Gd^3+ and 2Gd^3+ are described in the Examples.

SMILES	enhancement of MPO implant compared with control implant ([1]; mice)	maximum relative CNR ratio (CNR(right)/CNR(left)) ([1]; mouse)	maximum relative CNR ratio (CNR(right)/CNR(left)) ([1]; mouse, listed as serotonin-DOTA-Gd^3+ complex)	time of MPO activation and oligomerization to reach 90% completion [2]	r1p (0.47T, 40°) ([3]; H2O pH = 4.8) [mM⁻¹ s⁻¹]	r1p (0.47T, 40°) ([3]; PBS pH = 7.4) [mM⁻¹ s⁻¹]	r1p (1.5T, 25°) ([3]; PBS pH = 7.4) [mM⁻¹ s⁻¹]	enhancement of MPO implant compared with control implant ([1]; mice, listed as bis-tyramide-DTPA(Gd))	r1 ([3]; well plate at 1.5T, pH 7.2, no enzyme (row 1)) [mM⁻¹ s⁻¹]	relative CNR increase before significant wash-out of the control side ([1]; mice, 4.7 T) [fold]	maximum relative CNR increase ([1]; mice, at 240 minutes (washout from control implant)) [times]	maximum relative CNR increase ([1]; mice, in the first 143 minutes) [times]	relative CNR before wash-out/decrease of the control side ([1]; mouse)	relative CNR before wash-out/decrease of the control side ([1]; mouse, listed as bis-5-HT-DTPA(Gd))	relative CNR ratio ([1]; mouse, at 185 minutes)	increase in the contrast-to-noise ratio, right (MPO-containing) vs left (control) flank ([1]; mouse, i.v. 0.3 mM/Kg, over 3 hours post injection)
CC(C(=O)NCC(=O)NCCc1c[nH]c2ccc(O)cc12)N1CCN(CC(=O)[O-])CCN(CC(=O)[O-])CCN(CC(=O)[O-])CC1.[Gd+3] (stereo not shown) [5-HT-DOTA(Gd), Glycylmethyl DOTA(Gd) 5-Hydroxytryptamide]	significantly increased enhancement	1.7	1.72	about 15 minutes	–	–	–	–	–	–	–	–	–	–	–	–
O=C([O-])CN(CCN(CC(=O)[O-])CC(=O)NCCc1ccc(O)cc1)CCN(CC(=O)[O-])CC(=O)NCCc1ccc(O)cc1.[Gd+3] [1Gd^3+]	–	–	–	–	4.6	~4.3	5.3	did not result in significantly increased enhancement; also recorded: did not demonstrate significantly increased enhancement	–	–	–	–	–	–	–	–
O=C([O-])CN(CCN(CC(=O)[O-])CC(=O)NCCc1c[nH]c2ccc(O)cc12)CCN(CC(=O)[O-])CC(=O)NCCc1c[nH]c2ccc(O)cc12.[Gd+3] [2Gd^3+]	significantly increased enhancement	1.72 and 2.5	–	about 15 minutes	4.5	~4.3	5.1	–	4.7	1.8	2.5	1.9	1.7-1.8	1.9	2.0	1.7-2.0 fold
